# Laboratory results as given in patent US12378208B2, “N-substituted oseltamivir derivatives with antimicrobial activity” (THE HONG KONG POLYTECHNIC UNIVERSITY, priority 2019, dated 2025).
# What was measured:
# [1] = test system: oseltamivir-resistant strain 09v71923; test: Plaque assay in MDCK cells; assay type: cell-based, influenza A virus (H1N1 pandemic)
# [2] = test system: oseltamivir-resistant strain 11v17178; test: Plaque assay in MDCK cells; assay type: cell-based, influenza A virus (H1N1 pandemic)
# [3] = day 3, vs DMSO vehicle, two concentrations
SMILES,"plaque size [1, 3]","plaque size [2, 3]","plaque size ([1]; 0.2 nM oseltamivir, day 3)","plaque size ([2]; 0.1 nM oseltamivir, day 3)"
"CCC(CC)O[C@@H]1C=C(C(=O)O)C[C@H](NCc2noc(-c3ccco3)n2)[C@H]1NC(C)=O [Compound S7, (3R,4R,5S)-4-acetamido-5-(((5-(furan-2-yl)-1,2,4-oxadiazol-3-yl)methyl)amino)-3-(pentan-3-yloxy)cyclohex-1-ene-1-carboxylic acid]",No inhibition effect,No inhibition effect,–,–
"CCC(CC)O[C@@H]1C=C(C(=O)O)C[C@H](NCc2ccc(-c3c(C)noc3C)o2)[C@H]1NC(C)=O [Compound S22, (3R,4R,5S)-4-acetamido-5-(((5-(3,5-dimethylisoxazol-4-yl)furan-2-yl)methyl)amino)-3-(pentan-3-yloxy)cyclohex-1-ene-1-carboxylic acid]",No inhibition effect,No inhibition effect,–,–
CCOC(=O)C1=C[C@@H](OC(CC)CC)[C@H](NC(C)=O)[C@@H](N)C1 [oseltamivir],could not reduce the plaque size,–,larger plaque size,significant reduction
